We go through 2 molecules from PMC7046148 (Scientific Reports, 2020).

The term IC50 denotes the concentration that inhibits the measured activity by half.

Data set [1] deals with XCL-1 hiPSC CRBN Mock. Kind of data set: LPM differentiation assay (FOXF1 high content imaging), XCL-1 CRBN Mock clone. Type of data set: cell-based. The following applies: Homo sapiens, 48 h, % FOXF1+ cells after 2 d in APEL2+GSKi, read-out: IC50 (±SEM) in LPM differentiation assay.
Experimental: On the day after seeding, the medium was replaced with 100 µL/well of mTeSR-1 (control) or APEL2 + GSKi containing either DMSO or diluted compounds (for a final DMSO concentration of 0.2%). The same conditions were replenished the following day for a total of 2 d of differentiation, and the following day (3 d after seeding), the medium was aspirated, and hiPSCs were fixed in 10% NBF for 15 min at room temperature.
(§2) Immunofluorescence staining was carried out by fixing/permeabilizing cells overnight in blocking buffer containing 3% BSA (Sigma) in DPBS-T, which contains DPBS + Ca^2+//Mg^2+ with 0.3% Triton-X100 (Sigma). Fixed and permeabilized cells were incubated in primary antibodies diluted (as noted in Table 1) in antibody buffer, consisting of 1% BSA in DPBS-T, overnight at 4 °C.
(§3) Cells were washed in blocking buffer for >6 hours at 4 °C and subsequently incubated in secondary antibody diluted in antibody buffer overnight at 4 °C. Secondary antibodies were washed out in antibody buffer for >4 h at 4 °C, and hiPSCs were counterstained with DAPI (Fisher) at 10 µg/mL in DPBS-T for 2 h. hiPSCs were washed in DPBS-T for >2 h at 4 °C, and immediately before imaging, the DPBS-T was replaced with DPBS. […] Chemical dose-response experiments and experiments examining the time-course of marker expression during LPM differentiation were imaged at 10X magnification using the Cellomics ArrayScan or CellInsight Cx7 LZR High Content Screening Platform and HCS Studio Cell Analysis Software (Thermo Fisher). An artificial threshold was uniformly applied to all images to generate the percentage of DAPI+ nuclei that stained positively for FOXF1 or NANOG. Thresholding for FOXF1 and T was performed relative to undiffer-entiated hiPSCs, and thresholding for SALL4 and OCT4 was performed relative to a non-expressing cell type (human primary endothelial cells). Settings for image acquisition and processing were uniformly applied between XCL-1 clones. […] Experiments were repeated in quadruplicate unless otherwise stated, and data are presented as mean ± SEM. Nonlinear regression analysis was performed using the 4-parameter [inhibitor]-vs-response curve fitting algorithm in Prism (GraphPad).
Data set [2] has as its system hiPSCs. Kind of data set: Viability of hiPSCs in 3D culture (CellTiter Glo 3D). It is filed as cell-based, human. To be noted: 20 µM thalidomide or 3 µM atRA, 2 d LPM differentiation in 3D fibrin. How it is done: Supplementary Figure 10. Normalized viability of hiPSCs differentiated to LPM for 2 days in 3D […]
µM atRA. Data represent replicate wells in a single experiment, n=6, of hiPSCs that were cultured in fibrin for 1 day in mTeSR1 followed by 2 days of culture in APEL2+GSKi in the presence of either 0.1% […]
differentiation, the medium was replaced with CellTiter Glo 3D reagent (diluted 1:1 in DPBS), and luminescence was measured on a plate reader.
Normalized luminescence is reported as mean +/- SD of 6 replicate wells per condition. No statistical differences was observed via one-way ANOVA and Dunnett’s post-hoc test (α=0.05).
(1 picture or pasted object on this page, not shown here)
Background: In ATP-based viability assays light output follows the ATP content of the culture.

The target in data set [3] is T1, SALL4 (Homo sapiens, UniProt Q96SW2+Q9UJQ4).
T1 construct: Unmodified Gibco hiPSCs were either differentiated in APEL2 + GSKi or maintained in mTeSR1, and SALL4 nuclear protein expression was monitored; endogenous in cells; host or cells: Gibco hiPSCs; XCL-1 SALL4 mock hiPSC clone
Kind of data set: SALL4 nuclear protein expression (MFI) by high content imaging, Gibco hiPSCs. It is filed as cell-based. The source says: (§1) High content imaging analysis of SALL4 immunofluorescence with DAPI counterstaining in hiPSCs. […] Data represent the mean +/− SEM from 2 independent experiments.

In data set [4] the test system is XCL-1 hiPSC SALL4 Mock. Kind of data set: LPM differentiation assay (FOXF1 high content imaging), XCL-1 SALL4 Mock clone. To be noted: Homo sapiens, 48 h, read-out: IC50 (±SEM) in LPM differentiation assay.
Experimental: hiPSCs (Gibco or XCL-1 clones) were grown in mTeSR-1 on Matrigel, passaged into small clumps with Versene (4.5 min under normal culture conditions), counted as a single-cell suspension as described above, and seeded as small clumps at approximately 10,000 cells/well (30,000 cells/cm^2, ~15% confluence) in 100 µL mTeSR1 on Matrigel-coated µClear® 96-well plates (Greiner) for 1 d under normal culture conditions. On the day after seeding, the medium was replaced with 100 µL/well of mTeSR-1 (control) or APEL2 + GSKi containing either DMSO or diluted compounds (for a final DMSO concentration of 0.2%). The same conditions were replenished the following day for a total of 2 d of differentiation, and the following day (3 d after seeding), the medium was aspirated, and hiPSCs were fixed in 10% NBF for 15 min at room temperature.
as §2, §3
Data set [5] has as its target T2, SALL4^G416A (Homo sapiens, UniProt Q9UJQ4, G416A).
T2 construct: parental hiPSCs were engineered to express a homozygous G416A mutation in the endogenous SALL4 locus; endogenous in cells; host or cells: XCL-1 SALL4^G416A hiPSC clone (1E6), CRISPR/Cas9 knock-in at the endogenous locus
Kind of data set: SALL4 MFI by high content imaging, XCL-1 SALL4^G416A hiPSCs. It is filed as cell-based. To be noted: SALL4^G416A hiPSC clone, 8 h of treatment.
Text: as §1

For data set [6], the system named is Gibco hiPSCs. The experiment in a line: 3D chondrogenic differentiation after LPM differentiation, DMMB assay for sGAG. To be noted: during 2 d LPM differentiation, then 18 d chondrogenic differentiation; for sGAG/DNA content compared to the DMSO control: thalidomide 20 µM, atRA 3 µM; for reduction of sGAG/DNA content upon chondrogenic differentiation in 3D: thalidomide at 20 µM, atRA at 3 µM. Type of data set: cell-based, human. Here is the method: For 3D differentiation studies, Gibco hiPSCs were encapsulated in fibrin at 2–4 × 10^6 cells/mL. hiPSCs were passaged with Versene (as described above) and were suspended as small clumps in a solution composed of a 1:4:5:10 dilution of 200 mM CaCl2 in DI water, 50 U/mL human thrombin (Sigma) in 0.1% cell culture BSA in DI water, DPBS, and hiPSC suspension in mTeSR1. The hiPSC suspension was mixed by pipetting, and 0.5 µL droplets of suspended hiPSCs were plated at the bottom of each well of a round-bottom sterile polypropylene plate. hiPSC suspensions were subsequently diluted 5-fold by pipetting up and down in each well with 2 µL of 10 mg/mL human fibrinogen (Sigma) in DPBS (sterile filtered prior to use). Fibrin clot formation proceeded for 10 minutes at room temperature prior to addition of mTeSR-1 and incubation under normal culture conditions overnight. […] For chondrogenic differentiation experiments, cells were cultured in APEL2 + GSKi for the described duration, followed by culture in ACF MesenCult chondrogenic differentiation medium (Stem Cell Technologies) for 17–20 days under normal culture conditions. Encapsulated hiPSCs were characterized by qRT-PCR as described above, except cells were lysed by bead-based homogenization (Bead Mill 4, Thermo Fisher) in buffer RLT that was supplemented with 1% β-mercaptoethanol. RNeasy procedure was carried out per manufacturer’s instructions, including the optional DNase step. Purified RNA samples were stored at −20 °C before analysis using Taqman primer/probes (Thermo Fisher) and fast advanced master mix (Thermo Fisher) on a QuantStudio 5 (Thermo). Samples were compared using normalization to the ACTB in each sample and the control for each experiment using the 2^−ΔΔCT method.
Alternatively, encapsulated hiPSCs were characterized for sulfated glycosaminoglycan (sGAG) content using the dimethylmethylene blue (DMMB) assay protocol[33],[34]. […] After addition of DMMB assay buffer, samples were immediately read at 525 nm, and sGAG composition was calculated in each sample by comparison to a chondroitin sulfate standard that was dissolved in digestion buffer. sGAG content (in µg/mL) was normalized to dsDNA content (in µg/mL) in each sample.
Figure 7 Characterization of hiPSC chondrogenic differentiation in 3D by DMMB assay for sulfated glycosaminoglycans. Chondrogenic differentiation of hiPSCs was assessed by culturing hiPSCs in fibrin gels followed by culture in APEL2/GSKi and subsequent culture in chondrogenic differentiation medium for a total of 21 days in culture after encapsulation. The influence of the duration of LPM differentiation or of chemical treatment during LPM differentiation (for 2 days) on chondrogenic differentiation was assessed by sulfated glycosaminoglycan assay on day 21. […]

SMILES strings stand for the structures.

T2 sequence (Q96SW2 whole entry partner): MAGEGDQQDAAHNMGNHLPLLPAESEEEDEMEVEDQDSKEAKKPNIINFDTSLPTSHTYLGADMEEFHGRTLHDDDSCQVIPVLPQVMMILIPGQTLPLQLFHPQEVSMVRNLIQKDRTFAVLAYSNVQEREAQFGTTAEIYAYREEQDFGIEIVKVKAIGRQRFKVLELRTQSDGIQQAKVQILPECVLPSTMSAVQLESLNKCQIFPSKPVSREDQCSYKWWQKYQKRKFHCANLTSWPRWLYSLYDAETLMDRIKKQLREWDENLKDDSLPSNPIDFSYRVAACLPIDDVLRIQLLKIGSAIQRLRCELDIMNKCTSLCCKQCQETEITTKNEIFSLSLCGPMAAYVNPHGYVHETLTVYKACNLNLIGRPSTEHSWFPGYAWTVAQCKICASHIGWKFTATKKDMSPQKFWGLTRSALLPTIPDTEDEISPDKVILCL
T2 sequence (Q16531 whole entry partner): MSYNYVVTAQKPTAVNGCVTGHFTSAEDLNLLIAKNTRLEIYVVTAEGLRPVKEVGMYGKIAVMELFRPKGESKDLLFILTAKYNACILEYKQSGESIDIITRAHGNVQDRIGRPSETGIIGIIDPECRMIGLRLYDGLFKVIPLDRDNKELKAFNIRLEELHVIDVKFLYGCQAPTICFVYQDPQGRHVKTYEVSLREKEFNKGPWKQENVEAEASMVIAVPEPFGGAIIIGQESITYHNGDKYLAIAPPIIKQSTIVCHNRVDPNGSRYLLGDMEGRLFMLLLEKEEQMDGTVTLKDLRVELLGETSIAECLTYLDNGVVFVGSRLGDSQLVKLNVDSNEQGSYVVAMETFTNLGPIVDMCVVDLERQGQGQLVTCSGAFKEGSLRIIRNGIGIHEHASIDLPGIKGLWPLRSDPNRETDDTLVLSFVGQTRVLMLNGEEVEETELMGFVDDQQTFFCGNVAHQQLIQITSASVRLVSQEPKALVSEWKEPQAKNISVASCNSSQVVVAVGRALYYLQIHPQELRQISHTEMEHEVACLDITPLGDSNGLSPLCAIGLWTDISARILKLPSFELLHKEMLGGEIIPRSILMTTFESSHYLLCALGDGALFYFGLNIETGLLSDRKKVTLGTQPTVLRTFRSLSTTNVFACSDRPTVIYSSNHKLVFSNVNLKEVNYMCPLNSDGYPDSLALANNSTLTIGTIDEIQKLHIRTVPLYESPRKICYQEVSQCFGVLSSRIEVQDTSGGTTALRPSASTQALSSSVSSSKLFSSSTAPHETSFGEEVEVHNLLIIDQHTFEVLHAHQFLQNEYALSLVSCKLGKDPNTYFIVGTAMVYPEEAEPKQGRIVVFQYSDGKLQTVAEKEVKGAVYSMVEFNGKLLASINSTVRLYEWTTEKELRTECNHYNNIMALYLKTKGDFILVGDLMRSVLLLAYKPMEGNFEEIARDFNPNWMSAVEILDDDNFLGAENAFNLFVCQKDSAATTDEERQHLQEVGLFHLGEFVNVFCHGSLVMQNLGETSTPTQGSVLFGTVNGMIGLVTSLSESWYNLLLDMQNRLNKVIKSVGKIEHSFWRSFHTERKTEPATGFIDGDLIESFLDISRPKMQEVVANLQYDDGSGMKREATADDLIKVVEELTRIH
T2 sequence (Q9UJQ4 whole entry G416A): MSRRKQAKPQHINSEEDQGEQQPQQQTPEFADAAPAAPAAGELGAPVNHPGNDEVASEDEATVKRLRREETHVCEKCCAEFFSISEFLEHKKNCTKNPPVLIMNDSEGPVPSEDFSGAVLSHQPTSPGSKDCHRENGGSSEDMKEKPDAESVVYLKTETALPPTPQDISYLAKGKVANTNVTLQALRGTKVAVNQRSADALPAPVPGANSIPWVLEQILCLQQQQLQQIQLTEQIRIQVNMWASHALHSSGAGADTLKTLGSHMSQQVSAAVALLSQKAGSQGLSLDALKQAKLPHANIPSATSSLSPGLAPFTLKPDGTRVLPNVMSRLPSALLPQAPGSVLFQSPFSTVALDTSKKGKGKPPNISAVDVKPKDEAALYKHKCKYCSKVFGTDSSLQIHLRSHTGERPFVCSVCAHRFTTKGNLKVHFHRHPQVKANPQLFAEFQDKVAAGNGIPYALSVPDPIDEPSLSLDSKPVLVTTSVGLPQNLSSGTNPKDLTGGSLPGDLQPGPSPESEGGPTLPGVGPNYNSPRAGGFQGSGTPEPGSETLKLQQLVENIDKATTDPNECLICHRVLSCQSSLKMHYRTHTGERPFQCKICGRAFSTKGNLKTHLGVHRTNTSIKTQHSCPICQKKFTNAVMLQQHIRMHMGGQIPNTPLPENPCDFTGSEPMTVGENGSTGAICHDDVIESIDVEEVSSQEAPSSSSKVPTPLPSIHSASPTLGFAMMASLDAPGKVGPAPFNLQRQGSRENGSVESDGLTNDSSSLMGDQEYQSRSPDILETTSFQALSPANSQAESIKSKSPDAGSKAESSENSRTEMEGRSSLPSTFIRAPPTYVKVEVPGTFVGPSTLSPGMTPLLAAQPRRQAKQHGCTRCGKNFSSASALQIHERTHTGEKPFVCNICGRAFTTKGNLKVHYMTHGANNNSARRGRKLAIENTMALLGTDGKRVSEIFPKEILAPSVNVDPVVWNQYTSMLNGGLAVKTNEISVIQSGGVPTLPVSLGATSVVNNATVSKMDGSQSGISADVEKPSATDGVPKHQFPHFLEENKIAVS
T1 sequence (Q9UJQ4 whole entry): as the sequence (Q9UJQ4 whole entry G416A) above, with A416G counted along it
T1 sequence (Q96SW2 whole entry): as the sequence (Q96SW2 whole entry partner) above
T1 sequence (Q16531 whole entry partner): as the sequence (Q16531 whole entry partner) above

For `CC1=C(/C=C/C(C)=C/C=C/C(C)=C/C(=O)O)C(C)(C)CCC1` [atRA, all-trans retinoic acid], the IC50 was 2700 ± 2000 nM in data set [1] and 2940 ± 1200 nM in data set [4]. The “normalized viability (CellTiter Glo 3D) versus DMSO” value in data set [2] is listed as “No statistical differences”. For the same molecule, the “effect on SALL4 MFI” value in data set [3] (Gibco hiPSCs, 8 h of treatment, dose-response) is “did not reduce SALL4 MFI”; in data set [5], “unchanged”. The “sGAG/DNA content compared to the DMSO control” value in data set [6] is given as “decreased sGAG/DNA content”. Also, in data set [6], the “reduction of sGAG/DNA content upon chondrogenic differentiation in 3D” value is reported as “complete abolishment”.
Turning to `O=C1CCC(N2C(=O)c3ccccc3C2=O)C(=O)N1` (centres unmarked) [Thalidomide, thalidomide], the IC50 in data set [1] stood at 560 ± 450 nM. Moreover, the “normalized viability (CellTiter Glo 3D) versus DMSO” value in data set [2] is reported as “No statistical differences”. For the same molecule, in data set [3] (20 µM, Gibco hiPSCs in mTeSR1 or APEL2+GSKi, 2, 8 and 24 h after dosing), the “time-course of SALL4 MFI” value is given as “rapid decline in SALL4 MFI 2 h after dosing”. Moreover, the IC50 in data set [4] was found to be 690 ± 500 nM. For the same molecule, in data set [5], the “effect on SALL4 MFI” value is recorded as “unchanged”. Also, in data set [6], the “sGAG/DNA content compared to the DMSO control” value is listed as “decreased sGAG/DNA content” and the “reduction of sGAG/DNA content upon chondrogenic differentiation in 3D” value stood at 30%.
